Source: US11179348B2, “Combination comprising pterostilbene for the treatment of cancer” (FUNDACIÓN UNIVERSIDAD CATÓLICA DE VALENCIA SAN VICENTE …, priority 2015, dated 2021)

Experiments:
[1] = test system: MeWo melanoma; assay: In vivo growth of MeWo melanoma xenografts in nu/nu mice; parameters: species or system human; conditions: MeWo-RFP; 35 days after inoculation; Pter 30 mg/kg i.v. every 48 h and/or CRC infusion 0.3 μg/h
[2] = test system: corticosterone; assay: Plasma corticosterone levels (ELISA) in tumor-bearing mice; assay type: in vivo; conditions: 12 h circadian time
Description: (§1) Measurement of ACTH, Corticosterone, and NORA Levels.
(§2) Plasma levels of ACTH (Calbiotech, Inc., Spring Valley, Calif.), corticosterone (Kamiyama Biomedical Co., Seattle, Wash.), and NORA (IBL, Hamburg, Germany) were quantified by ELISA according to the instructions of the suppliers.

[3] = test system: A2058 melanoma; assay: In vivo growth of A2058 melanoma xenografts in nu/nu mice; parameters: species or system human; conditions: A2058-RFP; 35 days after inoculation; Pter 30 mg/kg i.v. every 48 h and/or CRC infusion 0.3 μg/h
[4] = test system: MelJuso melanoma; assay: In vivo growth of MelJuso melanoma xenografts in nu/nu mice; parameters: species or system human; conditions: MelJuso-RFP; 35 days after inoculation; Pter 30 mg/kg i.v. every 48 h and/or CRC infusion 0.3 μg/h
[5] = test system: BxPC-3 pancreatic cancer; assay: In vivo growth of BxPC-3 pancreatic cancer xenografts; parameters: species or system human; conditions: BxPC-3-RFP; 35 days after inoculation; Pter and/or CRC
[6] = test system: AsPC-1 pancreatic cancer; assay: In vivo growth of AsPC-1 pancreatic cancer xenografts; parameters: species or system human; conditions: AsPC-1-RFP; 28 days after inoculation; Pter and/or CRC
[7] = test system: glucocorticoid receptors (GR); assay: GR content of human cancer cells by [3H]-labeled ligand whole-cell binding assay
[8] = test system: ACTH; assay: Plasma ACTH levels (ELISA) in tumor-bearing mice; assay type: in vivo; conditions: 6 h circadian time
Description: as §1, §2

## C[C@]12C[C@H](O)[C@H]3[C@@H](CCC4=CC(=O)CC[C@@]43C)[C@@H]1CC[C@@H]2C(=O)CO [CRC, corticosterone, reference compound]
[1]
  Tumor vol.: 426 ± 116 mm^3
[2]; A2058-bearing mice, day 35
  CRC: 205 ± 48 ng/mL plasma
[2]; AsPC-1-bearing mice, day 28
  CRC: 324 ± 48 ng/mL plasma
[2]; BxPC-3-bearing mice, day 35
  CRC: 177 ± 36 ng/mL plasma
[2]; MeWo-bearing mice, day 35
  CRC: 177 ± 29 ng/mL plasma
[2]; MelJuso-bearing mice, day 35
  CRC: 164 ± 41 ng/mL plasma
[3]
  Tumor vol.: 857 ± 185 mm^3
[4]
  Tumor vol.: 240 ± 94 mm^3
[5]
  Tumor vol.: 588 ± 158 mm^3
[6]
  Tumor vol.: 1066 ± 235 mm^3
[7]; A2058-RFP tumors, day 35
  GR number (binding sites/cell): 80 ± 7 10^3 GR/cell
[7]; AsPC-1-RFP tumors, day 28
  GR number (binding sites/cell): 67 ± 7 10^3 GR/cell
[7]; BxPC-3-RFP tumors, day 35
  GR number (binding sites/cell): 134 ± 36 10^3 GR/cell
[7]; MeWo-RFP tumors, day 35
  GR number (binding sites/cell): 49 ± 7 10^3 GR/cell
[7]; MelJuso-RFP tumors, day 35
  GR number (binding sites/cell): 46 ± 6 10^3 GR/cell
[8]; AsPC-1-bearing mice, day 28
  ACTH: 106 ± 17 pg/mL plasma
[8]; BxPC-3-bearing mice, day 35
  ACTH: 55 ± 12 pg/mL plasma
